Experimental data from publication PMC7044277 (Nature Communications, 2020).
Several values for one entry are separate records, joined by “and”; a condition that tells them apart may be missing. Equal values may be shown once.

How the values were obtained:
Type in all cases: cell-based
[1] = target: T1, 320 non-olfactory GPCRs (Homo sapiens, UniProt P48039); details: receptor MTNR1A; replicate values, Fig_4g
T1 construct: expressed in transfected cells; host or cells: HTLA cells

[2] = target: T2, 320 non-olfactory GPCRs (Homo sapiens, UniProt P49286); details: receptor MTNR1B; replicate values, Fig_4g
T2 construct: expressed in transfected cells; host or cells: HTLA cells
T2 sequence (P49286 whole entry): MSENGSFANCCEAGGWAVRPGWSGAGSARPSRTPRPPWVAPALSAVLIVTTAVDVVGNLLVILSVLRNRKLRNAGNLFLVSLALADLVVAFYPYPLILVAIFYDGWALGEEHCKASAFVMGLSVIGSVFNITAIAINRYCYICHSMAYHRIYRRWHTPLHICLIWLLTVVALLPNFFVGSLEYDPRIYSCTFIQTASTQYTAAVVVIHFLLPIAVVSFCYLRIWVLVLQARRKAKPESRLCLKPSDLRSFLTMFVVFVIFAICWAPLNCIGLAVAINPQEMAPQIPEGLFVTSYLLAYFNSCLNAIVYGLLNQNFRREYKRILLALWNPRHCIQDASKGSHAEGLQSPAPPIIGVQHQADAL

[3] = target: T3, 320 non-olfactory GPCRs (Homo sapiens, UniProt Q15761); details: receptor NPY5R; replicate values, Fig_4g
T3 construct: expressed in transfected cells; host or cells: HTLA cells
T3 sequence (Q15761 whole entry): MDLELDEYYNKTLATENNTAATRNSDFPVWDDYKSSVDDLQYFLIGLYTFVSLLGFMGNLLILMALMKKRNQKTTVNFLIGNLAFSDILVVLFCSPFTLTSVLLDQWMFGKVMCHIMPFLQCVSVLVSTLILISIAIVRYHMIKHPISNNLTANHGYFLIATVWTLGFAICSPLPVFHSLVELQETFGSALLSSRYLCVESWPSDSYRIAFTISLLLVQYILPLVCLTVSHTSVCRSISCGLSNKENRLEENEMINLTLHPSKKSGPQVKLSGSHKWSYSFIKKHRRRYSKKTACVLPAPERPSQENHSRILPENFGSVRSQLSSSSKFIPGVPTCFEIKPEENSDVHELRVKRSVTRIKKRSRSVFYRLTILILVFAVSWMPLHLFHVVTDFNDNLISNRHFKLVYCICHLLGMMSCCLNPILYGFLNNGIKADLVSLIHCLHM

[4] = target: 320 non-olfactory GPCRs (Homo sapiens, UniProt P32239)
Sequence of 320 non-olfactory GPCRs (Homo sapiens, UniProt P32239) (P32239 whole entry): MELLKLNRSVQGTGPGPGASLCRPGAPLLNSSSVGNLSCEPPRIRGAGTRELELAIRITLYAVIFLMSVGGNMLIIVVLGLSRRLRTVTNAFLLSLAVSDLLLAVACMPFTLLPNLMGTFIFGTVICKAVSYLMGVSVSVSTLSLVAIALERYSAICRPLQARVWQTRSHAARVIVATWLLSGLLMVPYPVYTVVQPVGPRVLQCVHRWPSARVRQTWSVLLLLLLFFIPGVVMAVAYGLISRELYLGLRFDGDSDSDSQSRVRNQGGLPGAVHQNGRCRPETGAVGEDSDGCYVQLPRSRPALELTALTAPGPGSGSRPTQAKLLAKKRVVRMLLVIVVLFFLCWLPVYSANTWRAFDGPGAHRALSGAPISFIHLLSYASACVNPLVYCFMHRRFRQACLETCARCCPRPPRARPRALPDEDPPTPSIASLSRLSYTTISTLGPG
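For Fold of Basal in this document: compound tested at 1 µM final concentration.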
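For GPCRome agonism screen response in this document: fold over basal response of each receptor without drug.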

T1 sequence (P48039 whole entry): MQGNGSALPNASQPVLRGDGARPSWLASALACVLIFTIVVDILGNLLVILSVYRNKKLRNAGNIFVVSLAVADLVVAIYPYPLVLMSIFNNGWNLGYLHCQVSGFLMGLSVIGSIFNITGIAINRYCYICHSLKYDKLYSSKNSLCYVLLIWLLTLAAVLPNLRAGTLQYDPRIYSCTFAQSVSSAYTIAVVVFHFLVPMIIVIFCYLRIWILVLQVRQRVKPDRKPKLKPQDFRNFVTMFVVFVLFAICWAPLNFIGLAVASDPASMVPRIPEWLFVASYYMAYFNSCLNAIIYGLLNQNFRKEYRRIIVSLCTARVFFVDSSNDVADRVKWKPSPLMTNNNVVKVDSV

## CCOc1cccc2cc(C(C)NCC3(O)CCCCC3)oc12 (stereo not shown) [O4LE6]
[1]
  GPCRome agonism screen response: 2.743 and 4.229 and 2.242 and 2.817
[2]
  GPCRome agonism screen response: 1.769 and 0.5073 and 1.312 and 1.409
[3]
  GPCRome agonism screen response: 1.549 and 1.454 and 1.619 and 1.735
[4]
  Fold of Basal: 1.067 and 0.8402 and 0.8391 and 1.015
